In PubChem BioAssay AID256 (DTP/NCI, 2004) one finds T/C data, which are given here for 25 molecules.

Several values for one entry are separate records, joined by “and”; a condition that tells them apart may be missing. Identical values can stand only once. Inconclusive results and toxic doses are left out.

In the test the test system is CD2F1 mice, L1210 leukemia ip, survival T/C. In words: NCI In Vivo Anticancer Drug Screen. Data for tumor model L1210 Leukemia (intraperitoneal) in CD2F1 (CDF1) mice. The conditions noted are these: endpoint: mean survival time, higher = longer survival. In outline:
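Activity against a transplanted murine tumor was judged by comparing the compound group with a vehicle group. The outcome in the treated animals was divided by that in the controls.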

The mark [1] stands for this setting: dose: 100.0 mg/kg/injection, schedule: Q04DX003 (ip), vehicle: Klucel (hydroxypropylcellulose) (HPC).
Setting [2] is: dose: 200.0 mg/kg/injection, schedule: Q04DX003 (ip), vehicle: Klucel (hydroxypropylcellulose) (HPC).
Where [3] appears, read: dose: 400.0 mg/kg/injection, schedule: Q04DX003 (ip), vehicle: Klucel (hydroxypropylcellulose) (HPC).
[4] abbreviates: dose: 100.0 mg/kg/injection, schedule: Q04DX003 (ip), vehicle: saline with Tween-80.
Where [5] appears, read: dose: 200.0 mg/kg/injection, schedule: Q04DX003 (ip), vehicle: saline with Tween-80.
The mark [6] stands for this setting: dose: 400.0 mg/kg/injection, schedule: Q04DX003 (ip), vehicle: saline with Tween-80.
Setting [7] is: dose: 25.0 mg/kg/injection, schedule: Q01DX009 (ip), vehicle: saline with Tween-80.
Setting [8] is: dose: 50.0 mg/kg/injection, schedule: Q01DX009 (ip), vehicle: saline with Tween-80.
Setting [9] is: dose: 100.0 mg/kg/injection, schedule: Q01DX009 (ip), vehicle: saline with Tween-80.
Where [10] appears, read: dose: 400.0 mg/kg/injection, schedule: Q01DX009 (ip), vehicle: saline with Tween-80.
The mark [11] stands for this setting: dose: 200.0 mg/kg/injection, schedule: Q01DX009 (ip), vehicle: saline with Tween-80.
Setting [12] is: dose: 12.5 mg/kg/injection, schedule: Q01DX009 (ip), vehicle: saline with Tween-80.
[13] abbreviates: dose: 3.12 mg/kg/injection, schedule: Q01DX009 (ip), vehicle: saline with Tween-80.
Setting [14] is: dose: 6.25 mg/kg/injection, schedule: Q01DX009 (ip), vehicle: saline with Tween-80.
Setting [15] is: dose: 50.0 mg/kg/injection, schedule: Q01DX009 (ip), vehicle: Klucel (hydroxypropylcellulose) (HPC).
Where [16] appears, read: dose: 50.0 mg/kg/injection, schedule: Q01DX009 (ip), vehicle: saline.
Where [17] appears, read: dose: 100.0 mg/kg/injection, schedule: Q01DX009 (ip), vehicle: saline.
Setting [18] is: dose: 200.0 mg/kg/injection, schedule: Q01DX009 (ip), vehicle: saline.

Regarding `COc1cccc(CCCC(=O)O)c1`, the T/C by setting is: under setting [1], 101 % of control; under setting [2], 101 % of control; under setting [3], 101 % of control.
Take `CC(=O)CC(=O)OCc1ccccc1`: the T/C under setting [4] was 100 % of control, the T/C under setting [5] is 95 % of control and the T/C under setting [6] is 103 % of control.
Regarding `COC1CCC(/C=C(\C#N)C2CCC(C)CC2)CC1` (stereo unspecified), the T/C is, setting by setting: under setting [7], 93 % of control; under setting [8], 91 % of control; under setting [9], 90 % of control and 93 % of control; under setting [10], 92 % of control.
As to `O=C(O)CSc1cc(Cl)ccc1Cl`, the T/C (dose: 12.5 mg/kg/injection, schedule: Q04DX003 (ip), vehicle: Klucel (hydroxypropylcellulose) (HPC)) is 95 % of control; the T/C (dose: 25.0 mg/kg/injection, schedule: Q04DX003 (ip), vehicle: Klucel (hydroxypropylcellulose) (HPC)) is 98 % of control; the T/C (dose: 50.0 mg/kg/injection, schedule: Q04DX003 (ip), vehicle: Klucel (hydroxypropylcellulose) (HPC)) is 100 % of control; the T/C under setting [1] is 100 % of control.
Consider `Cc1c2ccccc2cc2cccc[n+]12`, for which the T/C by setting is: (dose: 2.5 mg/kg/injection, schedule: Q01DX009 (ip), vehicle: saline) 95 % of control and 100 % of control; (dose: 5.0 mg/kg/injection, schedule: Q01DX009 (ip), vehicle: saline) 95 % of control and 101 % of control; (dose: 10.0 mg/kg/injection, schedule: Q01DX009 (ip), vehicle: saline) 102 % of control and 110 % of control; (dose: 20.0 mg/kg/injection, schedule: Q01DX009 (ip), vehicle: saline) 97 % of control and 106 % of control.
With `ClCc1c2ccccc2cc2ccccc12`, the T/C (dose: 25.0 mg/kg/injection, schedule: Q04DX002 (ip), vehicle: saline with Tween-80) is 104 % of control.
On to `COc1cc(Cl)cc(OC)c1`, for which the T/C under setting [9] was 100 % of control, the T/C under setting [11] was 104 % of control and the T/C under setting [10] is 103 % of control.
As for `[Cl][Pt][Cl].c1ccc2[nH]c(C3CCCC[N-]3)nc2c1` (stereo unspecified), the T/C runs as follows: under setting [12], 93 % of control; under setting [7], 98 % of control; under setting [8], 94 % of control; under setting [11], 91 % of control.
Turning to `CC(=O)NC(C(=O)O)=C(C)C`, the T/C by setting is: under setting [9], 96 % of control; under setting [11], 105 % of control; under setting [10], 96 % of control.
`[CH3][Pb]([CH3])([CH3])[Cl]`: the T/C (dose: 1.56 mg/kg/injection, schedule: Q01DX009 (ip), vehicle: saline) is 97 % of control; the T/C (dose: 1.56 mg/kg/injection, schedule: Q04DX002 (ip), vehicle: saline) was 101 % of control; the T/C (dose: 3.13 mg/kg/injection, schedule: Q01DX009 (ip), vehicle: saline) was 87 % of control; the T/C (dose: 3.13 mg/kg/injection, schedule: Q04DX002 (ip), vehicle: saline) was 108 % of control; the T/C (dose: 6.25 mg/kg/injection, schedule: Q04DX002 (ip), vehicle: saline) was 92 % of control; the T/C (dose: 12.5 mg/kg/injection, schedule: Q04DX002 (ip), vehicle: saline) was 93 % of control.
In the case of `C#CC(O)CCC` (stereo unspecified), the T/C is 97 % of control (dose: 100.0 mg/kg/injection, schedule: Q01DX001 (ip), vehicle: saline) and 97 % of control (dose: 200.0 mg/kg/injection, schedule: Q01DX001 (ip), vehicle: saline).
As for `COc1ccc2nc3cc(Cl)ccc3c(NCCNCCNCCNc3c4ccc(Cl)cc4nc4ccc(OC)cc34)c2c1`, the T/C is, setting by setting: (dose: 3.12 mg/kg/injection, schedule: Q01DX009 (ip), vehicle: Klucel (hydroxypropylcellulose) (HPC)) 113 % of control; under setting [13], 96 % of control; (dose: 6.25 mg/kg/injection, schedule: Q01DX009 (ip), vehicle: Klucel (hydroxypropylcellulose) (HPC)) 116 % of control; under setting [14], 96 % of control; (dose: 12.5 mg/kg/injection, schedule: Q01DX009 (ip), vehicle: Klucel (hydroxypropylcellulose) (HPC)) 101 % of control; under setting [12], 102 % of control. The T/C runs as follows: under setting [7], 103 % of control; under setting [15], 90 % of control; under setting [8], 106 % of control; under setting [9], 106 % of control.
Consider `CC1CCN(Cc2c(COc3ccc(Cl)cc3)n(C)c3ccccc23)CC1`, for which the T/C is 87 % of control under setting [4], 93 % of control under setting [5] and 94 % of control under setting [6].
For the molecule `CC(=O)CC(C)(C)C1CCCCC1`, the T/C by setting is: (dose: 25.0 mg/kg/injection, schedule: Q01DX009 (ip), vehicle: Klucel (hydroxypropylcellulose) (HPC)) 93 % of control; under setting [15], 93 % of control; (dose: 100.0 mg/kg/injection, schedule: Q01DX009 (ip), vehicle: Klucel (hydroxypropylcellulose) (HPC)) 96 % of control; (dose: 200.0 mg/kg/injection, schedule: Q01DX009 (ip), vehicle: Klucel (hydroxypropylcellulose) (HPC)) 93 % of control.
Turning to `CCN(CC)CCN(CC)C(=O)C(O)(c1ccccc1)c1ccccc1`, the T/C under setting [16] was 98 % of control, the T/C under setting [17] is 95 % of control and the T/C under setting [18] was 91 % of control.
Take `O=C1OCCC1n1ccc(=O)[nH]c1=O` (stereo unspecified): the T/C reads like this: under setting [1], 102 % of control; under setting [2], 96 % of control; under setting [3], 102 % of control.
Take `COc1ccc2nc3cc(Cl)ccc3c(Nc3ccc(NS(C)(=O)=O)cc3)c2n1`: the T/C is 96 % of control (dose: 12.5 mg/kg/injection, schedule: Q01DX009 (ip), vehicle: other); 104 % of control (dose: 25.0 mg/kg/injection, schedule: Q01DX009 (ip), vehicle: other); 96 % of control (dose: 50.0 mg/kg/injection, schedule: Q01DX009 (ip), vehicle: other); 94 % of control (dose: 100.0 mg/kg/injection, schedule: Q01DX009 (ip), vehicle: other).
Take `CCCCNC(C)(C)C(=O)c1cccs1`: the T/C is, setting by setting: (dose: 25.0 mg/kg/injection, schedule: Q01DX009 (ip), vehicle: saline) 94 % of control; under setting [16], 98 % of control; under setting [17], 100 % of control.
With `CCCCN=C1C(=O)Nc2ccccc21`, the T/C is, setting by setting: (dose: 75.0 mg/kg/injection, schedule: Q01DX001 (ip), vehicle: saline) 98 % of control; (dose: 150.0 mg/kg/injection, schedule: Q01DX001 (ip), vehicle: saline) 97 % of control; (dose: 300.0 mg/kg/injection, schedule: Q01DX001 (ip), vehicle: saline) 95 % of control.
As to `N#CSCc1c(Cl)c(Cl)c(CSC#N)c(Cl)c1Cl`, the T/C by setting is: (dose: 75.0 mg/kg/injection, schedule: Q04DX003 (ip), vehicle: saline) 95 % of control; (dose: 150.0 mg/kg/injection, schedule: Q04DX003 (ip), vehicle: saline) 98 % of control; (dose: 300.0 mg/kg/injection, schedule: Q04DX003 (ip), vehicle: saline) 98 % of control.
Take `Cc1ccc(C(SCC(N)C(=O)O)(c2ccc(C)cc2)c2ccc(C)cc2)cc1` (stereo unspecified): the T/C under setting [17] is 175 % of control; the T/C under setting [18] was 210 % of control; the T/C (dose: 400.0 mg/kg/injection, schedule: Q01DX009 (ip), vehicle: saline) is 200 % of control.
Take `c1ccc(CCCCc2ccc3ccccc3n2)cc1`: the T/C is, setting by setting: under setting [9], 93 % of control; under setting [4], 106 % of control; under setting [11], 102 % of control; under setting [5], 100 % of control; under setting [10], 98 % of control; under setting [6], 100 % of control.
Take `CC1=NN(c2ccccc2)C(=O)/C1=C/N(C)C`: the T/C is, setting by setting: (dose: 3.13 mg/kg/injection, schedule: Q01DX009 (ip), vehicle: saline with Tween-80) 103 % of control; under setting [14], 97 % of control; (dose: 6.25 mg/kg/injection, schedule: Q04DX003 (ip), vehicle: saline with Tween-80) 95 % of control; under setting [12], 100 % of control; (dose: 12.5 mg/kg/injection, schedule: Q04DX003 (ip), vehicle: saline with Tween-80) 90 % of control.
As to `S=c1n(Cc2ccccc2)cnc2ncnn12`, the T/C under setting [1] is 98 % of control and the T/C under setting [2] was 111 % of control.
For `CCc1nc(N)nc(N)c1-c1ccc(Cl)c([N+](=O)[O-])c1`, the T/C by setting is: under setting [13], 101 % of control; under setting [14], 106 % of control.
